In DBAASP:
Values after ≈ are worked out from the molar mass of the structure shown. Values joined by “and” are separate entries in the source; they are usually repeats but may differ in a detail not shown here. Equal values may be shown once. Each block holds one molecule with its values, some of them ahead of it.

Columns and labels:
Experiment in all cases: ≥ marks a high value that may be exact or a test limit, other limits are often not marked, values filed in µg/mL are converted to µM
[1] = test system: Acinetobacter baumannii 4-MRGN
Enterococcus faecium = test system: Enterococcus faecium
[2] = test system: Pseudomonas aeruginosa ATCC 27853
Candida tropicalis = test system: Candida tropicalis
Escherichia coli = test system: Escherichia coli
Pseudomonas aeruginosa = test system: Pseudomonas aeruginosa
Staphylococcus aureus = test system: Staphylococcus aureus
[3] = test system: Acinetobacter baumannii ATCC 17978
[4] = test system: Aspergillus flavus ATCC MYA-3651
Aspergillus fumigatus = test system: Aspergillus fumigatus
[5] = test system: Candida albicans NRRL Y-326
[6] = test system: Candida krusei NRRL Y-27803
[7] = test system: Candida parapsilosis NRRL Y-1761
Enterobacter cloacae = test system: Enterobacter cloacae
[8] = test system: Escherichia coli ATCC 25922
[9] = test system: Fusarium solani NRRL 28548
[10] = test system: Klebsiella pneumoniae ATCC 10031
[11] = test system: Lichtheimia corymbifera NRRL 6251
[12] = test system: Mucor circinelloides NRRL 3631
[13] = test system: Pseudomonas aeruginosa ATCC 19660
[14] = test system: Staphylococcus aureus ATCC 25923
[15] = test system: Staphylococcus aureus ATCC 33592
Staphylococcus aureus MR = test system: Staphylococcus aureus MR
[16] = test system: Staphylococcus epidermidis ATCC 51625
[17] = test system: Candida albicans ATCC 10231
[18] = test system: Cryptococcus neoformans ATCC 32045
[19] = test system: Escherichia coli ATCC 2592
[20] = test system: Pseudomonas aeruginosa ATCC 10145
[21] = test system: Staphylococcus aureus ATCC 33591
Bacillus subtilis 168 = test system: Bacillus subtilis 168
[22] = test system: Candida glabrata ATCC 2001
[23] = test system: Candida tropicalis ATCC 13803
[24] = test system: Klebsiella pneumoniae ATCC 13883
[25] = test system: Pseudomonas aeruginosa PAO1
[26] = test system: Staphylococcus aureus MU50
[27] = test system: Staphylococcus aureus Newman
[28] = test system: Staphylococcus aureus UAMS-1
[29] = test system: Staphylococcus aureus USA 200
[30] = test system: Staphylococcus aureus USA 300
[31] = test system: Staphylococcus aureus USA 400
[32] = test system: Staphylococcus epidermidis 1457

- MIC [1]: ≥ 99.9 µM
- MIC (Enterococcus faecium): ≥ 99.9 µM
- MIC [2]: > 99.9 µM
SMILES: CC[C@H](C)[C@H](NC(=O)[C@H](CCC(=O)O)NC(=O)[C@@H]1CSSC[C@@H]2NC(=O)[C@H](Cc3ccc(O)cc3)NC(=O)[C@@H](NC(=O)[C@@H](NC(=O)[C@H](C)N)[C@@H](C)O)CSSC[C@H](NC(=O)[C@H](CCCN=C(N)N)NC(=O)CNC(=O)[C@H]([C@@H](C)O)NC(=O)[C@H](CCCN=C(N)N)NC2=O)C(=O)N[C@@H](C)C(=O)N[C@@H]([C@@H](C)O)C(=O)N[C@@H](CCCN=C(N)N)C(=O)N[C@@H](CCC(=O)O)C(=O)N[C@@H](CO)C(=O)N[C@@H](CC(C)C)C(=O)N[C@@H](CO)C(=O)NCC(=O)N[C@@H](C(C)C)C(=O)N1)C(=O)N[C@@H](CO)C(=O)NCC(=O)N[C@@H](CCCN=C(N)N)C(=O)N[C@@H](CC(C)C)C(=O)N[C@@H](Cc1ccc(O)cc1)C(=O)N[C@@H](CCCN=C(N)N)C(=O)O [ATCYCRTGRCATRESLSGVCEISGRLYR]

- MIC (Candida tropicalis): ≥ 39.8 µM
- MIC (Escherichia coli): > 500 µM
- MIC (Pseudomonas aeruginosa): > 500 µM
- MIC (Staphylococcus aureus): > 500 µM
SMILES: CSCC[C@@H]1NC(=O)[C@H](CC(C)C)NC(=O)[C@H](CCCNC(=N)N)NC(=O)[C@H](CO)NC(=O)[C@@H]2CSSC[C@@H]3NC(=O)[C@H](CO)NC(=O)CNC(=O)[C@H]([C@@H](C)O)NC(=O)[C@H](CSSC[C@H](N)C(=O)N[C@@H](CCCCN)C(=O)NCC(=O)N[C@@H](CCCCN)C(=O)NCC(=O)N[C@@H](C)C(=O)N[C@@H](CCCCN)C(=O)N2)NC(=O)[C@H](CSSC[C@@H](C(N)=O)NC(=O)[C@H](CCCCN)NC(=O)CNC(=O)[C@H](CO)NC(=O)[C@H](CCCNC(=N)N)NC3=O)NC(=O)[C@H](CC(=O)O)NC(=O)[C@H](Cc2ccc(O)cc2)NC1=O [CKGKGAKCSRLMYDCCTGSCRSGKC]

- MIC [3]: 7.69 µM (≈ 16 µg/mL)
- MIC [4]: ≥ 61.5 µM
- MIC (Aspergillus fumigatus): ≥ 43.5 µM
- MIC [5]: 30.7 µM (≈ 64 µg/mL)
- MIC [6]: 30.7 µM (≈ 64 µg/mL)
- MIC [7]: 30.7 µM (≈ 64 µg/mL)
- MIC (Enterobacter cloacae): 2.72 µM (≈ 5.65 µg/mL)
- MIC [8]: 2.88 µM (≈ 6 µg/mL)
- MIC [9]: 0.961 µM (≈ 2 µg/mL)
- MIC [10]: 15.4 µM (≈ 32 µg/mL)
- MIC [11]: 0.961 µM (≈ 2 µg/mL)
- MIC [12]: ≥ 61.5 µM
- MIC [13]: 15.4 µM (≈ 32 µg/mL)
- MIC [2]: 2.88 µM and 7.69 µM
- MIC [14]: 2.88 µM (≈ 6 µg/mL)
- MIC [15]: 3.84 µM (≈ 8 µg/mL)
- MIC (Staphylococcus aureus MR): 3.84 µM (≈ 8 µg/mL)
- MIC (Staphylococcus aureus): 2.72 µM (≈ 5.65 µg/mL)
- MIC [16]: 1.92 µM (≈ 4 µg/mL)
SMILES: CC[C@H](C)[C@H](NC(=O)[C@H](CCCCN)NC(=O)[C@H](C)NC(=O)[C@H](CCCN=C(N)N)NC(=O)[C@H](CC(C)C)NC(=O)[C@H](CCCN=C(N)N)NC(=O)[C@@H](NC(=O)[C@H](CCCCN)NC(=O)[C@@H](NC(=O)[C@H](CCCCN)NC(=O)[C@H](C)NC(=O)[C@H](CCCN=C(N)N)NC(=O)[C@H](CC(C)C)NC(=O)[C@H](CCCCN)NC(=O)[C@@H](N)Cc1ccccc1)[C@@H](C)CC)C(C)C)C(=O)N[C@@H](CCCCN)C(=O)N[C@@H](CC(C)C)C(N)=O [FKLRAKIKVRLRAKIKL]

- MIC [17]: 104 µM (≈ 354 µg/mL)
- MIC [18]: ≥ 32.9 µM
- MIC [19]: 25.9 µM (≈ 88 µg/mL)
- MIC [20]: ≥ 36.8 µM
- MIC [21]: ≥ 73.6 µM
SMILES: CC(C)C[C@H](NC(=O)[C@H](CCCCN)NC(=O)[C@H](CCCCN)NC(=O)[C@H](CC(C)C)NC(=O)[C@H](CC(C)C)NC(=O)[C@H](CCCCN)NC(=O)[C@H](CCCCN)NC(=O)[C@H](CC(C)C)NC(=O)[C@H](CC(C)C)NC(=O)[C@H](CCCCN)NC(=O)[C@H](CCCCN)NC(=O)[C@H](CC(C)C)NC(=O)[C@H](CC(C)C)NC(=O)[C@H](CCCCN)NC(=O)[C@H](CCCCN)NC(=O)[C@H](CC(C)C)NC(=O)[C@H](CC(C)C)NC(=O)[C@H](CCCCN)NC(=O)[C@H](CCCCN)NC(=O)[C@H](CC(C)C)NC(=O)[C@H](CC(C)C)NC(=O)[C@H](CCCCN)NC(=O)[C@H](CCCCN)NC(=O)[C@H](CC(C)C)NC(=O)[C@H](CC(C)C)NC(=O)[C@H](CCCCN)NC(=O)[C@H](CCCCN)NC(=O)[C@@H](N)CC(C)C)C(=O)O [LKKLLKKLLKKLLKKLLKKLLKKLLKKL]

- MIC (Bacillus subtilis 168): 6.3 µM (≈ 9.76 µg/mL)
- MIC [17]: 12.5 µM (≈ 19.4 µg/mL)
- MIC [22]: 12.5 µM (≈ 19.4 µg/mL)
- MIC [23]: 3.1 µM (≈ 4.8 µg/mL)
- MIC [8]: > 50 µM
- MIC [24]: ≥ 50 µM
- MIC [25]: > 50 µM
- MIC [26]: 6.2 µM (≈ 9.61 µg/mL)
- MIC [27]: 3.1 µM (≈ 4.8 µg/mL)
- MIC [28]: 25 µM (≈ 38.7 µg/mL)
- MIC [29]: 3.1 µM (≈ 4.8 µg/mL)
- MIC [30]: 3.1 µM (≈ 4.8 µg/mL)
- MIC [31]: 3.1 µM (≈ 4.8 µg/mL)
- MIC [32]: 3.1 µM (≈ 4.8 µg/mL)
SMILES: CC[C@H](C)[C@H](NC(=O)[C@@H](NC(=O)[C@@H]1CCCN1C(=O)[C@H](CC(C)C)NC(=O)[C@@H](NC(=O)[C@@H](N)CO)[C@@H](C)CC)[C@@H](C)O)C(=O)N[C@H](C(=O)N[C@@H](CO)C(=O)N[C@@H](Cc1ccccc1)C(=O)N[C@@H](CC(C)C)C(=O)N[C@@H](CO)C(=O)N[C@@H](CCCCN)C(=O)N[C@H](C(=O)N[C@@H](Cc1ccccc1)C(N)=O)C(C)C)C(C)C [SILPTIVSFLSKVF]
